# Measurements reported in patent US20250320206A1, “STAT6 DEGRADERS” (Gilead Sciences, Inc., priority 2024, published 2025).
# Key:
# [1] = target: T1, STAT6 (Homo sapiens, UniProt P42226); experiment: Stat6 Degrader Assay (HiBiT based, HeLa LgBiT clone 4.14); format: cell-based; details: HeLa LgBiT clone 4.14 HiBiT-STAT6, 4-24 h incubation; values given for compounds with >80% Emax; geometric mean; read-out: STAT6 degradation DC50
# T1 construct: These cells express endogenous STAT6; host or cells: HeLa LgBiT clone 4.14
# T1 sequence (P42226 1-847): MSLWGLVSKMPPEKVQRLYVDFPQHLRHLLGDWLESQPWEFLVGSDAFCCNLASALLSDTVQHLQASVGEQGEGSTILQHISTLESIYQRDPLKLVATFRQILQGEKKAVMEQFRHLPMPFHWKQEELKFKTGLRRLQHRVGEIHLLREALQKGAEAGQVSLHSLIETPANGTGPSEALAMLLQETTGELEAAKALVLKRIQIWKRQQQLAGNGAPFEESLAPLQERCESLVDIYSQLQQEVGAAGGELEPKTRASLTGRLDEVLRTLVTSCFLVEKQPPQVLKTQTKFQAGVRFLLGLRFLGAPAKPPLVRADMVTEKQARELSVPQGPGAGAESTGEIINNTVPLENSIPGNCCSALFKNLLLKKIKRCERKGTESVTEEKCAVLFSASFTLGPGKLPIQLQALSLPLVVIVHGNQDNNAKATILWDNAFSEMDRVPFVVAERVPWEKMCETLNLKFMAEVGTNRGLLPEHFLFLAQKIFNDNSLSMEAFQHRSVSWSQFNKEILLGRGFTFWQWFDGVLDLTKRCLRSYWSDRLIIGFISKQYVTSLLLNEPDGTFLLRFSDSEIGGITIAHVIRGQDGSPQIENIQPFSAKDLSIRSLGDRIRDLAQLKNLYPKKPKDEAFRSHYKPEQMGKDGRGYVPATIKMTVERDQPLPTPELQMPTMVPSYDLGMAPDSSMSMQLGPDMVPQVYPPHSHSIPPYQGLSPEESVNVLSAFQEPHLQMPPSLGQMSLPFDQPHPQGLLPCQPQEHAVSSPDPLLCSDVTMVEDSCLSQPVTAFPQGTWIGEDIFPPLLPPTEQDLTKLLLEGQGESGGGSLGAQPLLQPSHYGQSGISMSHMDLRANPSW
# In short: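 Luminescence from HiBiT-STAT6 complementing stably expressed LgBiT in HeLa clone 4.14 reports remaining STAT6 protein. Cells (5000/well) exposed to compound for 4-24 h at 37° C; read 0.5 h after Nano-Glo addition. 100% degradation window set with 50 μM terfenadine; percent degradation plotted against concentration.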
# [2] = system: Eotaxin-3 release in human whole blood stimulated with IL-4; experiment: Human Whole Blood Eotaxin-3 Assay (IL-4 stimulated eotaxin-3 release); format: cell-based; details: IL-4 stimulation, 48 h, values given for compounds with >80% Emax, geometric mean
# In short: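 Eotaxin-3 (CCL26) release measured by MSD kit in plasma supernatant after 48 h IL-4 stimulation ([…]) of human whole blood. Compounds added in triplicate 4-fold dilutions 2 h before stimulation; 0.5% DMSO final, 37° C, 5% CO2.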
SMILES,DC50 [1],EC50 [2]
"CNc1ccn(-c2ccnc3c2cc([C@H](C)N2CC=C(c4c(C)cc(C(=O)N(C)c5ccc(C6CCN(Cc7ccc8c(c7)C(C)(C)C(=O)N8C7CCC(=O)NC7=O)CC6)cc5)cc4F)CC2)n3C)c(=O)c1 (stereo partly drawn) [Example 3u232, N-(4-(1-((1-(2,6-dioxopiperidin-3-yl)-3,3-dimethyl-2-oxoindolin-5-yl)methyl)-piperidin-4-yl)phenyl)-3-fluoro-N,5-dimethyl-4-(1-((S)-1-(1-methyl-4-(4-(methylamino)-2-oxopyridin-1 (2H)-yl)-1H-pyrrolo[2,3-b]pyridin-2-yl)ethyl)-1,2,3,6-tetrahydropyridin-4-yl)benzamide]",0.1 nM,0.8 nM
"CN(C(=O)c1cc(F)c(C2CCN(Cc3cc4c(-n5ccc6c(c5=O)CCN6)ccnc4n3C)CC2)c(F)c1)c1ccc(C2CCN(Cc3ccc4c(c3)n(C)c(=O)n4C3CCC(=O)NC3=O)CC2)cc1 (stereo not drawn) [Example 3u251, N-(4-(1-((1-(2,6-dioxopiperidin-3-yl)-3-methyl-2-oxo-2,3-dihydro-1H-benzo[d]-imidazol-5-yl)methyl)piperidin-4-yl)phenyl)-3,5-difluoro-N-methyl-4-(1-((1-methyl-4-(4-oxo-1,2,3,4-tetrahydro-5H-pyrrolo[3,2-c]pyridin-5-yl)-1H-pyrrolo[2,3-b]pyridin-2-yl)methyl)piperidin-4-yl)-benzamide]",0.2 nM,0.9 nM
"CNc1cc(=O)n(-c2ccnc3c2cc([C@H](C)N2CC=C(c4c(C)cc(C(=O)N(C)c5ccc(N6CCC(Cc7ccc8c(c7)n(C)c(=O)n8[C@@H]7CCC(=O)NC7=O)CC6)nc5)cc4F)CC2)n3C)cc1F (single isomer, unassigned) [Example 3u243]",0.3 nM,0.4 nM
"CNc1cc(=O)n(-c2ccnc3c2cc([C@H](C)N2CC=C(c4c(C)cc(C(=O)N5CCC(CN6CCN(Cc7cc8c(cc7F)N(C7CCC(=O)NC7=O)C(=O)C87CC7)CC6)CC5)cc4F)CC2)n3C)cc1F (stereo partly drawn) [Example 3u152, 3-(6′-fluoro-5′-((4-((1-(3-fluoro-4-(1-((S)-1-(4-(5-fluoro-4-(methylamino)-2-oxopyridin-1 (2H)-yl)-1-methyl-1H-pyrrolo[2,3-b]pyridin-2-yl)ethyl)-1,2,3,6-tetrahydropyridin-4-yl)-5-methylbenzoyl)piperidin-4-yl)methyl)piperazin-1-yl)methyl)-2′-oxospiro[cyclopropane-1,3′-indolin]-1′-yl)piperidine-2,6-dione]",6.6 nM,13.2 nM
"CNc1cc(=O)n(-c2ccnc3c2cc([C@H](C)N2CC=C(c4c(C)cc(C(=O)N(C)c5ccc(N6CCN(Cc7ccc8c(c7)C7(CC7)C(=O)N8C7CCC(=O)NC7=O)CC6)nc5)cc4F)CC2)n3C)cc1F (stereo partly drawn) [Example 3u239, N-(6-(4-((1′-(2,6-dioxopiperidin-3-yl)-2′-oxospiro[cyclopropane-1,3′-indolin]-5′-yl)-methyl)piperazin-1-yl)pyridin-3-yl)-3-fluoro-4-(1-((S)-1-(4-(5-fluoro-4-(methylamino)-2-oxopyridin-1 (2H)-yl)-1-methyl-1H-pyrrolo[2,3-b]pyridin-2-yl)ethyl)-1,2,3,6-tetrahydropyridin-4-yl)-N,5-dimethyl-benzamide]",0.1 nM,1.2 nM
"CNc1cc(=O)n(-c2ccnc3c2cc(CN2CCC(c4c(F)cc(C(=O)N5CCC(CN6CCN(Cc7cc8c(cc7F)N(C7CCC(=O)NC7=O)C(=O)C87CC7)CC6)CC5)cc4F)CC2)n3C)cc1F (stereo not drawn) [Example 3u93, 3-(5′-((4-((1-(3,5-difluoro-4-(1-((4-(5-fluoro-4-(methylamino)-2-oxopyridin-1 (2H)-yl)-1-methyl-1H-pyrrolo[2,3-b]pyridin-2-yl)methyl)piperidin-4-yl)benzoyl)piperidin-4-yl)methyl)piperazin-1-yl)methyl)-6′-fluoro-2′-oxospiro[cyclopropane-1,3′-indolin]-1′-yl)piperidine-2,6-dione]",26.9 nM,16.6 nM
"CNc1cc(=O)n(-c2ccnc3c2cc([C@H](C)N2CC=C(c4c(C)cc(C(=O)N(C)c5ccc(C6CCN(Cc7ccc8c(c7)C7(CC7)C(=O)N8C7CCC(=O)NC7=O)CC6)cc5)cc4F)CC2)n3C)cc1F (stereo partly drawn) [Example 3u236, N-(4-(1-((1′-(2,6-dioxopiperidin-3-yl)-2′-oxospiro[cyclopropane-1,3′-indolin]-5′-yl)methyl)piperidin-4-yl)phenyl)-3-fluoro-4-(1-((S)-1-(4-(5-fluoro-4-(methylamino)-2-oxopyridin-1 (2H)-yl)-1-methyl-1H-pyrrolo[2,3-b]pyridin-2-yl)ethyl)-1,2,3,6-tetrahydropyridin-4-yl)-N,5-dimethylbenzamide]",0.1 nM,0.9 nM

# The next lines start with the values.
DC50 [1],EC50 [2],SMILES
12.9 nM,67.3 nM,"CNc1cc(=O)n(-c2ccnc3c2cc([C@H](C)N2CC=C(c4c(C)cc(C(=O)N5CCC(CN6CCN(c7ccc8c(c7)C7(CC7)C(=O)N8C7CCC(=O)NC7=O)C[C@@H]6C)CC5)cc4F)CC2)n3C)cc1F (stereo partly drawn) [Example 3u63, 3-(5′-((S)-4-((1-(3-fluoro-4-(1-((S)-1-(4-(5-fluoro-4-(methylamino)-2-oxopyridin-1 (2H)-yl)-1-methyl-1H-pyrrolo[2,3-b]pyridin-2-yl)ethyl)-1,2,3,6-tetrahydropyridin-4-yl)-5-methylbenzoyl)-piperidin-4-yl)methyl)-3-methylpiperazin-1-yl)-2′-oxospiro[cyclopropane-1,3′-indolin]-1′-yl)-piperidine-2,6-dione]"
1.3 nM,1.8 nM,"CNc1cc(=O)n(-c2ccnc3c2cc([C@H](C)N2CC=C(c4c(F)cc(C(=O)N5CCC(CN6CCN(Cc7ccc8c(c7)n(C7CC7)c(=O)n8[C@@H]7CCC(=O)NC7=O)C[C@@H]6C)CC5)cc4F)CC2)n3C)cc1F (single isomer, unassigned) [Example 3u130]"
5.1 nM,6.9 nM,"CNc1cc(=O)n(-c2ccnc3c2cc([C@H](C)N2CC=C(c4c(C)cc(C(=O)N5CCC(CN6CCN(c7ccc8c(c7)C7(CC7)C(=O)N8[C@@H]7CCC(=O)NC7=O)CC6)CC5)cc4F)CC2)n3C)cc1F (single isomer, unassigned) [Example 3u292]"
4.5 nM,1.9 nM,"CNc1ccn(-c2ccnc3c2cc(CN2CC=C(c4c(F)cc(C(=O)N5CCC(CN6CCN(Cc7ccc8c(c7)n(C7CC7)c(=O)n8[C@H]7CCC(=O)NC7=O)C[C@@H]6C)CC5)cc4F)CC2)n3C)c(=O)c1 (single isomer, unassigned) [Example 3u72]"
0.2 nM,0.3 nM,"CNc1ccn(-c2ccnc3c2cc(CN2CCC(c4c(C)cc(C(=O)N(C)c5ccc(C6CCN(Cc7ccc8c(c7)n(C)c(=O)n8C7CCC(=O)NC7=O)CC6)cc5)cc4F)CC2)n3C)c(=O)c1 (stereo not drawn) [Example 3u248, N-(4-(1-((1-(2,6-dioxopiperidin-3-yl)-3-methyl-2-oxo-2,3-dihydro-1H-benzo[d]imidazol-5-yl)methyl)piperidin-4-yl)phenyl)-3-fluoro-N,5-dimethyl-4-(1-((1-methyl-4-(4-(methylamino)-2-oxopyridin-1 (2H)-yl)-1H-pyrrolo[2,3-b]pyridin-2-yl)methyl)piperidin-4-yl)benzamide]"
0.04 nM,0.3 nM,"CNc1ccn(-c2ccnc3c2cc(CN2CC=C(c4c(C)cc(C(=O)N(C)c5ccc(C6CCN(Cc7ccc8c(c7)n(C)c(=O)n8C7CCC(=O)NC7=O)CC6)cc5)cc4F)CC2)n3C)c(=O)c1 (stereo not drawn) [Example 3u247, N-(4-(1-((1-(2,6-dioxopiperidin-3-yl)-3-methyl-2-oxo-2,3-dihydro-1H-benzo[d]-imidazol-5-yl)methyl)piperidin-4-yl)phenyl)-3-fluoro-N,5-dimethyl-4-(1-((1-methyl-4-(4-(methyl-amino)-2-oxopyridin-1 (2H)-yl)-1H-pyrrolo[2,3-b]pyridin-2-yl)methyl)-1,2,3,6-tetrahydropyridin-4-yl)benzamide]"
7.3 nM,0.7 nM,"CNc1ccn(-c2ccnc3c2cc([C@H](C)N2CC=C(c4c(C)cc(C(=O)N5CCC(CN6CCN(Cc7cc8c(cc7F)n([C@@H]7CCC(=O)NC7=O)c(=O)n8C)C[C@@H]6C)CC5)cc4F)CC2)n3C)c(=O)c1 (single isomer, unassigned) [Example 3u209]"
0.3 nM,0.4 nM,"CNc1ccn(-c2ccnc3c2cc([C@H](C)N2CC=C(c4c(C)cc(C(=O)N5CCC(CN6CCN(Cc7ccc8c(c7)n(C)c(=O)n8[C@@H]7CCC(=O)NC7=O)CC6)CC5)cc4F)CC2)n3C)c(=O)c1 (single isomer, unassigned) [Example 3u157]"
